# Measurements: patent publication US11518742B2 (priority 2020, dated 2022)
# Where two headings read alike, the source gives them in different places.
# Columns and labels:
# [1] = system: Slugs (Arion lusitanicus); assay type: in vivo
# Text: The Slug Mucosal Irritation (SMI) assay was initially developed at the Laboratory of Pharmaceutical Technology (UGent) to predict the mucosal irritation potency of pharmaceutical formulations and ingredients. The test utilizes the terrestrial slug Arion lusitanicus. The body wall of the slugs is a mucosal surface composed of different layers.
# The outer single-layered columnar epithelium that contains cells with cilia, cells with micro-villi and mucus secreting cells covers the subepithelial connective tissue. Slugs that are placed on an irritating substance will produce mucus. Additionally tissue damage can be induced which results in the release of proteins and enzymes from the mucosal surface. […] A classification prediction model that distinguishes between irritation (mucus production) and tissue damage (release of proteins and enzymes) has been developed. […] A 5% shampoo dilution or artificial tears were instilled in the eye and the discomfort was scored by the participants on a 5 point scale during several time points up to 30 min after instillation. The same shampoos were tested in the SMI assay using the Stinging, Itching and Burning (SIB) protocol.
# The purpose of this assay was to assess the stinging, itching or burning potential of the test item(s) defined below. Using the objective values obtained for the mucus production the stinging, itching or burning potential of the test item(s) can be estimated by means of the prediction model that is composed of four categories (no, mild, moderate and severe).
# Test System: Slugs (Arion lusitanicus); 3 slugs per treatment group. The parental slugs of Arion lusitanicus collected in local gardens along Gent and Aalter (Belgium) are bred in the laboratory in an acclimatized room (18-20° C.). The slugs are housed in plastic containers and fed with lettuce, cucumber, carrots and commercial dog food.
# Test Design: A single study was performed.
# Slugs weighing between 3 and 6 g were isolated from the cultures two days before the start of an experiment. The body wall was inspected carefully for evidence of macroscopic injuries. […] The slugs were placed in a plastic box lined with paper towel moistened with PBS and were kept at 18-20° C. Daily the body wall of the slugs was wetted with 300 μl PBS using a micropipette.
# An overview of this can be seen in FIG. 4.
# The mucus production was expressed as % of the body weight.
# Based on the endpoint of the SMI assay the stinging, itching or burning potency of the test item(s) was estimated using a classification prediction model.
# The evaluation of the test results was based upon the total amount of mucus production during 3 repeated contact periods with the test item.
# For each slug, the mucus production was expressed in % of the body weight by dividing the weight of the mucus produced during each contact period by the body weight of the slug before the start of that contact period. The total mucus was calculated for each slug and then the mean per treatment group was calculated. The classification prediction model shown in Table 1 was used to classify the compounds.
# [2] = Competitive equilibration of Pattern A, B and C forms in solvents; assay type: physicochemical; conditions: suspension in 0.5 ml solvent agitated 24 hours; AB = Pattern A 15 mg + Pattern B 30 mg, AC = Pattern A 15 mg + Pattern C 30 mg; 1 IPA, 2 toluene, 3 iPrOAc, 4 MeCN, 5 MEK, 6 2-MeTHF
# Procedure: Solvent, 0.5 ml, was charged to crystallisation tubes as detailed in the Table below. Suspensions were agitated at 100 rpm at […] for 24 hours. Suspensions were isolated via isolute cartridge and air dried for 5 minutes and characterised by XRPD and DSC.
# [3] = system: Slugs (Arion lusitanicus); assay: SMI assay, historical data (30-min / 60-min contact periods); assay type: in vivo; conditions: for Total MP (% body weight): treatment time 60-min; for CP1 60-min, amount of mucus produced: Table 6; for CP1 60-min, amount of mucus produced / CP1 30-min, amount of mucus produced / CP2 30-min, amount of mucus produced / Total MP / Day 1 CP1 60-min, amount of mucus produced / Day 2 CP2 60-min, amount of mucus produced: historical data; for Ranking of salts by SIB reactions: comparison of 60-min historical data with SIB protocol data; for CP1 30-min, amount of mucus produced / CP2 30-min, amount of mucus produced: Table 4 (Code 00E04); for Day 1 CP1 60-min, amount of mucus produced / Day 2 CP2 60-min, amount of mucus produced: Table 5; for Day 1 CP1 60-min, amount of mucus produced: 1% in CP1; for Day 2 CP2 60-min, amount of mucus produced: 3.5% in CP2
# [4] = Controlled cooling crystallisation: solubility in minimal solvent at 50 °C; assay type: physicochemical
# Procedure: (detailed in the Table below). The solutions were clarified through a 0.45 μm Teflon syringe filter into pre-heated crystallisation tubes and cooled from 50° C. to −10° C. over 60 hours (1° C. Hr-1 cooling rate) and held at −10° C. for 50 hours (no agitation).
# Solutions were clarified into crystallisation tubes at 50° C. and were cooled to −10° C. at a rate of 10° C.·hr-1, then equilibrated at −10° C. for 12 hours, then agitated at −10° C. at 400 rpm for 30 minutes which afforded a mobile suspension for all samples except Sample I which remained a solution. Further equilibration with agitation at −10° C. at 400 rpm for 3 hours afforded a thin suspension. All samples were isolated via isolute cartridge and air dried for 5 minutes before characterisation.
# [5] = Concentration 10%, treatment time 45-min (3× 15-min)
# [6] = Table 2, stinging, itching and burning
# [7] = Table 3, stinging, itching and burning
compound,measurement,setting,value
"O=P([O-])(O)O.[Na+] [Sodium phosphate, 10% monobasic, Sodium phosphate monobasic]",Total MP (% body weight),[1]; [5],15.2 % body weight
same,SIB Category,[1]; [6],Moderate (Moderate: 10% ≤ total MP < 17.5%)
same,SIB Category,[1]; [7],Moderate (Moderate: 10% ≤ total MP < 17.5%)
COc1ccc2[nH]cc(CCN(C)C)c2c1.O=C(O)c1ccccc1 [AB4],"Summary of solid form characterisation, DSC endotherm",[2],Endotherm at 124 °C
same,"Summary of solid form characterisation, XRPD",[2],Pattern A
COc1ccc2[nH]cc(CCN(C)C)c2c1.O=C(O)c1ccccc1 [AB1],"Summary of solid form characterisation, DSC endotherm",[2],Endotherm at 124 °C
same,"Summary of solid form characterisation, XRPD",[2],Pattern A
"CC(=O)[O-].[Na+] [Sodium acetate, 10%, Sodium acetate]",SIB Category,[1]; in vivo,Moderate (key: No: total MP < 5.5%; Mild: 5.5% ≤ total MP < 10%; Moderate: 10% ≤ total MP < 17.5%; Severe: total MP ≥ 17.5%)
same,Total MP (% body weight),[1]; in vivo,11.0 % body weight
COc1ccc2[nH]cc(CCN(C)C)c2c1.O=C(O)c1ccccc1 [AB2],"Summary of solid form characterisation, DSC endotherm",[2],Endotherm at 122 °C
same,"Summary of solid form characterisation, XRPD",[2],Pattern C
"O=C([O-])CC(O)(CC(=O)[O-])C(=O)[O-].[Na+].[Na+].[Na+] [Sodium citrate, 10%, Sodium citrate]",Total MP (% body weight),[1]; [5],12.5 % body weight
same,SIB Category,[1]; [6],Moderate (Moderate: 10% ≤ total MP < 17.5%)
same,SIB Category,[1]; [7],Moderate (Moderate: 10% ≤ total MP < 17.5%)
O=C([O-])c1ccccc1.[Na+] [Sodium benzoate],Total MP (% body weight),[3]; Concentration 1%,2.6 % body weight
same,Total MP (% body weight),[3]; Concentration 10%,6.9 % body weight
same,"CP1 60-min, amount of mucus produced",[3]; listed as Sodium benzoate (1%),2.6 ± 0.3
same,"CP1 60-min, amount of mucus produced",[3]; listed as Sodium benzoate (10%),6.9 ± 1.2
same,Ranking of salts by SIB reactions,[3],least irritating salt
COc1ccc2[nH]cc(CCN(C)C)c2c1.O=C(O)c1ccccc1 [AC4],"Summary of solid form characterisation, DSC endotherm",[2],Endotherm at 124 °C
same,"Summary of solid form characterisation, XRPD",[2],Pattern A
COc1ccc2[nH]cc(CCN(C)C)c2c1.O=C(O)c1ccccc1 [AC1],"Summary of solid form characterisation, DSC endotherm",[2],Endotherm at 124 °C
same,"Summary of solid form characterisation, XRPD",[2],Pattern A
COc1ccc2[nH]cc(CCN(C)C)c2c1.O=C(O)c1ccccc1 [AB5],"Summary of solid form characterisation, DSC endotherm",[2],Endotherm at 124 °C
same,"Summary of solid form characterisation, XRPD",[2],Pattern A
COc1ccc2[nH]cc(CCN(C)C)c2c1.O=C(O)c1ccccc1 [AB6],"Summary of solid form characterisation, DSC endotherm",[2],Endotherm at 124 °C
same,"Summary of solid form characterisation, XRPD",[2],Pattern A
COc1ccc2[nH]cc(CCN(C)C)c2c1.O=C(O)c1ccccc1 [5MeODMT benzoate lot 20/20/150FP2],Solubility mg · ml^−1 at ° C.,"[4]; 2-Chlorotoluene, at 80 °C (suspension at 12.5 mg·ml-1 at 50 °C), cryst. tube K",12.5 at 80 mg · ml^−1
same,Solubility mg · ml^−1 at ° C.,"[4]; 4-Methyl-2-pentanone, at 50 °C, cryst. tube H, minimal solvent for clear solution",25 at 50 mg · ml^−1
same,Solubility mg · ml^−1 at ° C.,"[4]; Cumene, at 80 °C (suspension at 12.5 mg·ml-1 at 50 °C), cryst. tube I",12.5 at 80 mg · ml^−1
same,Solubility mg · ml^−1 at ° C.,"[4]; Ethyl formate, at 50 °C, cryst. tube E, minimal solvent for clear solution",40 at 50 mg · ml^−1
same,Solubility mg · ml^−1 at ° C.,"[4]; Iso-Butyl acetate, at 50 °C, cryst. tube D, minimal solvent for clear solution",12.5 at 50 mg · ml^−1
same,Solubility mg · ml^−1 at ° C.,"[4]; Iso-Propyl acetate, at 50 °C, cryst. tube C, minimal solvent for clear solution",16.7 at 50 mg · ml^−1
same,Solubility mg · ml^−1 at ° C.,"[4]; Methyl acetate, at 50 °C, cryst. tube A, minimal solvent for clear solution",33.3 at 50 mg · ml^−1
same,Solubility mg · ml^−1 at ° C.,"[4]; Methyl benzoate, at 50 °C, cryst. tube F, minimal solvent for clear solution",50 at 50 mg · ml^−1
same,Solubility mg · ml^−1 at ° C.,"[4]; Methyl propionate, at 50 °C, cryst. tube G, minimal solvent for clear solution",40 at 50 mg · ml^−1
same,Solubility mg · ml^−1 at ° C.,"[4]; Toluene, at 80 °C (suspension at 12.5 mg·ml-1 at 50 °C), cryst. tube J",12.5 at 80 mg · ml^−1
same,Solubility mg · ml^−1 at ° C.,"[4]; n-Propyl acetate, at 50 °C, cryst. tube B, minimal solvent for clear solution",20 at 50 mg · ml^−1
same,Solubility mg · ml^−1 at ° C.,"[4]; α,α,α-Trifluorotoluene, at 80 °C (suspension at 12.5 mg·ml-1 at 50 °C), cryst. tube L",12.5 at 80 mg · ml^−1
Benzalkonium chloride [PC - 1% BAC],"CP1 30-min, amount of mucus produced",[3],13.2 ± 4.2
same,"CP2 30-min, amount of mucus produced",[3],18.6 ± 9.8
same,Total MP,"[3]; Table 4, 2 x 30-min contact periods",31.8 ± 12.6
same,Total MP,"[3]; Table 5, 2 x 60-min contact periods",31.6 ± 2.5
same,"Day 1 CP1 60-min, amount of mucus produced",[3],21.9 ± 4.8
same,"Day 2 CP2 60-min, amount of mucus produced",[3],9.7 ± 3.2
same,"CP1 60-min, amount of mucus produced",[3],15.0 ± 1.9
COc1ccc2[nH]cc(CCN(C)C)c2c1.O=C(O)c1ccccc1 [AB3],"Summary of solid form characterisation, XRPD",[2],Pattern A
COc1ccc2[nH]cc(CCN(C)C)c2c1.O=C(O)c1ccccc1 [AC2],"Summary of solid form characterisation, DSC endotherm",[2],Endotherm at 123 °C +
same,"Summary of solid form characterisation, XRPD",[2],Pattern C
"O=C([O-])/C=C/C(=O)[O-].[Na+].[Na+] [Disodium fumarate, 10%, Disodium fumarate]",Total MP (% body weight),[1]; [5],13.3 % body weight
same,SIB Category,[1]; [6],Moderate (Moderate: 10% ≤ total MP < 17.5%)
same,SIB Category,[1]; [7],Moderate (Moderate: 10% ≤ total MP < 17.5%)
same,MP CP1 (%),"[1]; mucus produced, first 15-min contact period, mean ± SD, n = 3",5.0 ± 2.5%
O=C([O-])C(=O)[O-].[Na+].[Na+] [Sodium oxalate],Total MP (% body weight),[3]; Concentration 1%,11.2 % body weight
same,"CP1 30-min, amount of mucus produced",[3],4.5 ± 1.3
same,"CP2 30-min, amount of mucus produced",[3],6.6 ± 1.0
same,"Day 1 CP1 60-min, amount of mucus produced",[3],11.2 ± 3.9
same,"Day 2 CP2 60-min, amount of mucus produced",[3],16.0 ± 4.0
same,Ranking of salts by SIB reactions,[3],most irritating salt
